In PMC10313368 (The Journal of Clinical Investigation, 2023):
“And” between values parts separate entries of the source, which are not always exact repeats. Equal entries are not always repeated.

What was measured:
OIR mice = test: Retinal NV in the oxygen-induced retinopathy (OIR) mouse model; type: in vivo; parameters: Figure 14 C (retinal NV, OIR) / Figure 14 E (retinal NV, OIR): unit not given here
From the text: To characterize the contribution of these other HIF-regulated angiogenic factors to the promotion of ischemia-driven retinal NV in vivo, we used the classic oxygen-induced retinopathy (OIR) model characterized by Smith and colleagues ([35]). In stage 1 of this model, P7 pups are exposed to hyperoxia (75% O2) for 5 consecutive days (P7–P12), resulting in obliteration of the posterior retinal vasculature. In stage 2, pups (at P12) are returned to room air (21% O2). The resulting relative ischemia promotes the expression of angiogenic mediators that stimulate the development of retinal NV (peaking at P17; Figure 2A). […]
Animal studies. Eight-week-old pathogen-free female C57BL/6 mice were obtained from The Jackson Laboratory (JAX). Timed pregnant C57BL/6 mice were obtained from Charles River Laboratories. Mice heterozygous for HIF-1α have been previously described (2). Mice heterozygous for HIF-2α (strain number: 003266; common name: EPAS1 KO) were purchased […]
OIR mouse model. OIR experiments were performed as previously described (1, 3). Briefly, C57BL/6 mice were placed in 75% O2 on P7. On P12, the mice were returned to room air and were […]
(or vehicle) by intravitreal injection. Mice with body weight less than 6 g at P17 were excluded […]
from analysis. Data were collected from both males and females and the results were combined since there was no apparent difference between sexes. Representative images for selected time points from a minimum of three independent experiments are shown. Data from 3-8 pups were obtained at each time point. […]
Intraperitoneal (IP) injections. […]
intraperitoneally using an insulin syringe in OIR pups. […]
the peritoneal cavity of neonatal C57BL/6 mice and STZ mice at indicated times, and the retinal vasculature and lysates for WB and qPCR were assessed at P17.
Intraocular injections. Intravitreal injections were performed with a PLI-100A Pico-liter Microinjector (Warner Instruments, Harvard Bioscience) using pulled-glass micropipettes. Each micropipette was calibrated to deliver a 1 μl volume on depression of a foot switch. The mice were anesthetized with a ketamine (100 mg/kg) and xylazine (5mg/kg) mixture, and under a dissecting microscope, the sharpened tip of the micropipette was passed through the sclera just posterior to the limbus into the vitreous cavity and the foot switch was depressed, which caused fluid to […]
penetrate into the vitreous space. […]
mice for vascular permeability test, retinal vasculature, and lysates for WB and qPCR analysis.
Immunoﬂuorescence assays. Details for antibodies are provided in Supplemental Table 1.
Immunofluorescence assays in retinal organoids and mouse retinal tissues were performed as previously described (4). Briefly, mice were sacrificed using CO2 asphyxiation, and the eyes were enucleated and fixed with a solution of 4% paraformaldehyde in PBS (Thermo Scientific™) for two hours at RT, followed by washing with PBS for 10 minutes in a shaker. Retinas were isolated and incubated in 0.5% BSA solution overnight at 4 °C. Retinas were then washed with PBS 3 times for 10 minutes in the shaker and stained with isolectin B4 (Invitrogen; 1:200 dilution in PBS) overnight at 4 °C. After washing 3 times for 10 minutes each in the shaker, the retinas were mounted. Images were captured with Zeiss fluorescent microscope. Eight fields per eye (2 fields per petal) including area of neovascularization were selected and fluorescence intensity was measured by ImageJ software. […]
The eyes were enucleated and immediately immersed in 4% (wt/vol) paraformaldehyde for 2 hours at room temperature. Retinas were isolated and wholemounts prepared on clean glass slides and mounted vitreous side up under coverslips with antifade medium (Vectashield; Vector Laboratories, Burlingame, CA). Images were captured by Zeiss fluorescent microscope or confocal microscopy and fluorescence was quantified by the image J software (National Institutes

HIF-1α = target: T1, HIF-1α (Mus musculus, UniProt Q61221); test: Western blot of HIF-1α in neurosensory retina of STZ-diabetic mice; type: in vivo; details: IP 32-134D 40 or 80 mg/kg; Supplementary Figure 3
T1 construct: from tissue; host or cells: retina of C57BL/6 OIR pups
Protocol: Immunoblot assays. Cells, neurosensory retina, and D120 retinal organoid lysates were subjected to 4–15% gradient SDS/PAGE (Invitrogen). Immunoblot (Western blot or WB) assays were performed as previously described (1).
Reverse transcription and quantitative real-time PCR. Total RNA was isolated from cultured cells or retinas with PureLinkTM RNA Mini Kit (Invitrogen #12183025), and cDNA was prepared with MuLV Reverse Transcriptase (Applied Biosystems). Quantitative real-time PCR was performed with Power SYBR Green PCR Master Mix (Applied Biosystems) and MyiQ Real-Time PCR Detection System (Bio-Rad). Normalization was done using cyclophilin A for mouse tissue and human cell lines. Primers are listed in Supplemental Table 2.
Angiogenesis array. Total RNA was isolated from MIO-MI cells (8 hours) and HUVECs (16 […]
cDNA was prepared with QuantiTect® Reverse Transcription Kit (Qiagen, Cat# 205311). […]
STZ-induced diabetes mouse model. […] Blood glucose was measured on experimental day 28 after 16 hours fasting and mice with blood glucose level > 250 mg/dL were considered […]
the peritoneal cavity of neonatal C57BL/6 mice and STZ mice at indicated times, and the retinal vasculature and lysates for WB and qPCR were assessed at P17. […]

[1] = OIR mice, Figure 10E, individual values

T1 sequence (Q61221 whole entry): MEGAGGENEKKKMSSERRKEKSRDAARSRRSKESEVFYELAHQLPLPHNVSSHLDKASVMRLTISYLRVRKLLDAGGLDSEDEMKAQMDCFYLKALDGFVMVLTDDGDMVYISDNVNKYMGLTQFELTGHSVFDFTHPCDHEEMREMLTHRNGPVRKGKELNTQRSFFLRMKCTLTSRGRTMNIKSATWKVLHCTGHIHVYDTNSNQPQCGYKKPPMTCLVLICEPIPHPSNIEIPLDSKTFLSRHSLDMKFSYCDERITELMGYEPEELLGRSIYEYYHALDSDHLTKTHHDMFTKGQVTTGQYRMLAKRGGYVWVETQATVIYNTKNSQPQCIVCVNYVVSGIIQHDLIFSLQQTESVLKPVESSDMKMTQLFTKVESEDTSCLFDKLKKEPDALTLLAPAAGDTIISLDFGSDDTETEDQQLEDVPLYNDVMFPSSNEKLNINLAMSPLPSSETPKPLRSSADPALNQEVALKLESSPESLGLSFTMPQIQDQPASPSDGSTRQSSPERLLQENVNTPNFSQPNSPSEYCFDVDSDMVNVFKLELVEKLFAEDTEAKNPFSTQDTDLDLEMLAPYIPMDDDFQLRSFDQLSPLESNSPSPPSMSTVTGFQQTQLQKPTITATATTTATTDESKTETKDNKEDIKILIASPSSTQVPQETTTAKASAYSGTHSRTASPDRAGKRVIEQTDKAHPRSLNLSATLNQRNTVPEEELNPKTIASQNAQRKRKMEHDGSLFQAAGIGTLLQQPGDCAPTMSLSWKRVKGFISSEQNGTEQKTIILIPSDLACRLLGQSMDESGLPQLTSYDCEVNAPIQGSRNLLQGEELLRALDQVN

Brc1ccc2c(-c3csc(-c4c[nH]c5c(Br)cccc45)n3)c[nH]c2c1 [32-134D, 4-(6-bromo-1H-indol-3-yl)-2-(7-bromo-1H-indol-3-yl)thiazole]
retinal NV in OIR mice (in words) (OIR mice; 5 consecutive days of i.p. injections 20 mg/kg 32-134D): marked reduction in retinal NV | Figure 14 C (retinal NV, OIR) (OIR mice; 14ng intraocular, individual values): 3.954 and 13.1715 and 11.5498 and 7.756 and 10.0719 and 10.2983 | Figure 14 C (retinal NV, OIR) (OIR mice; 70ng intraocular, individual values): 3.009 and 6.226 and 3.283 and 2.049 and 6.5224 and 7.021 | Figure 14 E (retinal NV, OIR) (OIR mice; Figure 14E, 280ng intraocular, individual values): 3.652 and 2.167 and 0.762 and 1.534 and 2.454 and 1.3869 | avascular area (%) (OIR mice; [1]): 39.7919% and 29.3948% and 27.2246% and 38.1203% and 35.7742% and 31.6081% and 33.2821% and 34.1% | neovascular area (%) (OIR mice; [1]): 6.529% and 6.16% and 5.906% and 5.171% and 3.4% and 5.22% and 4.584% and 1.45% | inhibition of retinal NV at P17 (OIR mice; OIR mice, single intraocular injection 32-134D 14 ng at P12): ~75% | inhibition of retinal NV at P17 (OIR mice; OIR mice, single intraocular injection 32-134D 280 ng at P12): approximately 85% | HIF-1α expression in neurosensory retina of STZ mice (HIF-1α): inhibits HIF
